# In paper PMC8622523, “New Diterpenoids from Mesona procumbens with Antiproliferative Activities Modulate Cell Cycle Arrest and Apoptosis in Human Leukemia Cancer Cells” (Pharmaceuticals, 2021):
# Columns and labels:
# [1] = tested on: A549 (human lung carcinoma); assay: Cytotoxicity assay (Cell Counting Kit-8), A549; assay type: cell-based; conditions: 72 h of drug treatment, means ± SD of 3 independent experiments
# Procedure: (§1) A549 (human lung carcinoma), Hep-3B (human liver carcinoma), PC-3 (human prostate carcinoma), HT29 (human colon carcinoma), U937 (human monoblastic leukemia), and RAW 264.7 cells were purchased from the Food Industry Research and Development Institute (Hsinchu, Taiwan) and cultured in 10% heat-inactivated fetal bovine serum (FBS) in DMEM or RPMI-1640. Cell viability was determined by using Cell Counting Kit-8 (CCK-8; Dojindo, Rockville, MD, USA) according to the manufacturer’s instructions. All experiments were performed in triplicate.
# [2] = tested on: normal mouse RAW 264.7 macrophages; assay: Cytotoxicity assay (Cell Counting Kit-8), RAW 264.7; assay type: cell-based; conditions: for IC50: normal mouse macrophage cell line, 72 h of drug treatment, Cell Counting Kit-8; for toxicity against normal mouse RAW 264.7 macrophages compared with cancer cells: in words
# Procedure: as §1
# [3] = tested on: Hep-3B (human liver carcinoma); assay: Cytotoxicity assay (Cell Counting Kit-8), Hep-3B; assay type: cell-based; conditions: 72 h of drug treatment, means ± SD of 3 independent experiments
# Procedure: as §1
# [4] = tested on: HT29 (human colon carcinoma); assay: Cytotoxicity assay (Cell Counting Kit-8), HT29; assay type: cell-based; conditions: 72 h of drug treatment, means ± SD of 3 independent experiments
# Procedure: as §1
# [5] = tested on: U937 (human monoblastic leukemia); assay: Cytotoxicity assay (Cell Counting Kit-8), U937; assay type: cell-based; conditions: for IC50: 72 h of drug treatment, Cell Counting Kit-8, means ± SD of 3 independent experiments; for times less potent than 1 and 2: U937 cell lines, SAR comparison
# Procedure: as §1
# [6] = tested on: PC-3 (human prostate carcinoma); assay: Cytotoxicity assay (Cell Counting Kit-8), PC-3; assay type: cell-based; conditions: 72 h of drug treatment, means ± SD of 3 independent experiments
# Procedure: as §1
# [7] = tested on: A549, Hep-3B, PC-3, HT29, and U937 cancer cells; assay: Antiproliferative activity, panel of five cancer cell lines; assay type: cell-based; conditions: Homo sapiens, read-out: IC50 values, range over five cancer cell lines
# Procedure: as §1
# HL-60 cells = tested on: HL-60 cells; set-up: method as in PMID 20851175; conditions: cited from earlier work
# [8] = tested on: human breast cancer cell line MCF-7; set-up: method as in PMID 15639346; conditions: cited from earlier work
# U937 cells [9] = assay: Western blot analysis of cell cycle regulators and apoptosis-related proteins; assay type: cell-based, human
# Procedure: Cells were lysed in RIPA buffer with phenylmethylsulfonyl fluoride (PMSF; Beyotime Biotechnology, Jiangsu, China). The protein concentration was determined using a Bio-Rad protein assay system (Bio-Rad, Hercules, CA, USA). Equivalent amounts of proteins were separated by SDS–PAGE and then transferred to polyvinylidene difluoride membranes (Bio-Rad). After blocking in TBS containing 5% nonfat milk, the membranes were incubated with primary antibodies (1:1000 dilution) at 4 °C for 12 h and then incubated with a horseradish peroxidase-conjugated secondary antibody (1:5000 dilution). Signals were detected on X-ray film using an ECL detection system (Pierce, Rockford, IL, USA). The relative protein levels were calculated based on β-actin as the loading control.
# U937 cells [10] = assay: Cell cycle and sub-G1 analysis by flow cytometry (PI staining); assay type: cell-based, human; conditions: for time course cell cycle analysis: 5 μM mesonol A or 10 μM mesonol B, 3-24 h; for effect of NAC pretreatment on compound-induced cell cycle change (sub-G1 accumulation or G2/M arrest): 10 mM NAC for 1 h, then 5 µM mesonol A 12 h or 10 µM mesonol B 6 h
# Procedure: U937 cells were treated with mesonols A (1) or B (2), dosage range: 0.625–10 µM, for the specified time period, fixed in ice-cold 70% ethanol in PBS, suspended in Krishan’s reagent (0.05 mg/mL propidium iodide (PI), 0.1% sodium citrate, 0.02 mg/mL ribonuclease A and 0.3% NP-40), and incubated on ice for 30 min. Data acquisition for 10,000 events was performed with an FACScan system (Becton Dickinson). The distribution of cells in the different phases of the cell cycle was analyzed from the DNA histograms using CELL Quest software. All experiments were performed in triplicate.
# U937 cells [11] = assay: Measurement of intracellular ROS generation (DCFDA); assay type: cell-based, human; conditions: for intracellular ROS levels compared to control: 5 µM mesonol A or 10 µM mesonol B, 30 min, DCFH-DA
# Procedure: U937 cells were seeded onto 96-well microplates at a final concentration of 1 × 10^5 cells per well and treated with mesonol A or B (5 or 10 µM) for 30 min with or without pretreatment with N-acetylcysteine (NAC) (10 mM) for 1 h. The cells were stained with 2′,7′-dichlorofluorescin diacetate (DCFDA) Cellular Reactive Oxygen Species Detection Assay Kit (Abcam, Cambridge, UK) solution (20 µM) and then incubated at 37 °C for 30 min in the dark. Fluorescence measurements were performed with a fluorescence plate reader (Bio-Rad, Hercules, CA, USA) at Ex/Em = 485/535 nm in end point mode in the presence of compounds, medium, or buffer. All experiments were performed in triplicate.
# KYSE-450 cells = conditions: cited from earlier work
# KYSE-150 cells = conditions: cited from earlier work
# hepatoma = tested on: hepatoma; set-up: method as in PMID 30835539; conditions: read-out: anti-hepatoma IC50; cited from earlier work
Compound,"IC50 ([1]; Homo sapiens, A549, 72 h)",IC50 ([2]; RAW264.7),"IC50 ([3]; Homo sapiens, Hep3B, 72 h)","IC50 ([4]; Homo sapiens, HT-29, 72 h)","IC50 ([5]; Homo sapiens, U-937, 72 h)","IC50 ([6]; Homo sapiens, 72 h)",further results
"C=C1C2CC3C4(C)CCCC(C)(C)C4CCC3(CC2O)C1O (stereo not drawn) [Compound 9, 13α,15β-trihydroxy-ent-atis-16(17)-ene]",> 20 µM,> 50 µM,> 20 µM,> 20 µM,> 20 µM,> 20 µM,
"CC1(C)CCCC2(C)C1CCC13CC(C(O)CC21)C(O)(CCl)C3O (stereo not drawn) [Compound 4, 12α,15β,16β-trihydroxy-17-chloro-ent-kaurane]",19.4 ± 0.38 µM,> 50 µM,19.9 ± 0.73 µM,12.6 ± 0.55 µM,8.25 ± 0.24 µM,16 ± 0.21 µM,times less potent than 1 and 2 [5]: 2–3 times; IC50 [7]: 1.97 to 19.9 µM
"CC1(C)CCCC2(C)C1CCC13C(O)C(C(=O)CC21)C(O)(CO)C3O (stereo not drawn) [Compound 6, 14β,15β,16β,17-tetrahydroxy-ent-kaur-12-one]",> 20 µM,> 50 µM,> 20 µM,> 20 µM,> 20 µM,> 20 µM,
"CC1(C)CCCC2(C)C1CCC13CC=C(CO)C1OC(=O)CC23 (centres unmarked) [Compound 11, sarcopetal-13(16)-en-17-ol-12,15-olide]",> 20 µM,> 50 µM,> 20 µM,> 20 µM,> 20 µM,> 20 µM,
C=C1C(=O)[C@@]23[C@H](O)C[C@@H]4C(C)(C)C(=O)CC[C@@]4(C)[C@@H]2CC[C@@H]1[C@H]3O [glaucocalyxin A],,,,,,,apoptosis induction (HL-60 cells): induced apoptosis in HL-60 cells
"CCc1c2c(nc3ccc(OC(=O)N4CCC(N5CCCCC5)CC4)cc13)-c1cc3c(c(=O)n1C2)COC(=O)[C@]3(O)CC [CPT-11, reference compound]",,,,,,,IC50 [1]: 15.3 ± 0.42 µM; IC50 [3]: 23.2 ± 0.38 µM; IC50 [4]: 15.1 ± 0.48 µM; IC50 [5]: 4.95 ± 0.43 µM; IC50 [6]: 31.03 ± 0.28 µM
"CC1(C)CCC[C@]2(C)[C@@H]1CC[C@@]13C[C@@H](CC[C@H]12)[C@@](O)(CO)C3.CC1(C)CCC[C@]2(C)[C@@H]1CC[C@@]13C[C@@H](CC[C@H]12)[C@@](O)(CO)C3.O (single isomer, unassigned; ent-16) [ent-16β,17α-dihydroxykaurane]",,,,,,,cytotoxicity and apoptotic effects [8]: exhibit cytotoxicity and apoptotic effects
"CC1(C)CCCC2(C)C1CCC13CC(C(O)CC21)C(O)(CO)C3O (stereo not drawn) [Compound 3, 12α,15β,16β,17-tetrahydroxy-ent-kaurane]",17.1 ± 0.36 µM,> 50 µM,17.1 ± 0.73 µM,14.2 ± 0.31 µM,,16.5 ± 0.55 µM,IC50 [5]: 6.73 ± 0.36 µM; times less potent than 1 and 2 [5]: 2–3 times; IC50 [7]: 1.97 to 19.9 µM
"CC1(C)CCCC2(C)C1CCC13CC(C(O)CC12)C(CO)C3=O (stereo not drawn) [Compound 2, 12α-hydroxy-16β-hydroxymethyl-ent-kaur-15-one]",7.39 ± 0.42 µM,> 50 µM,7.06 ± 0.38 µM,2.78 ± 0.03 µM,1.97 ± 0.09 µM,4.19 ± 0.31 µM,"toxicity against normal mouse RAW 264.7 macrophages compared with cancer cells [2]: less toxic against normal mouse RAW 264.7 macrophages; PARP cleavage (U937 cells [9]; 10 µM, 6 h): significantly cleaved and activated; antiapoptotic proteins (Bcl-2, Bcl-xL) (U937 cells [9]; 10 µM, 6 h): decreases in antiapoptotic proteins, including Bcl-2 and Bcl-xL; caspase-9 and -3 activation (pro-caspase-9 and -3 protein levels) (U937 cells [9]; 10 µM, 6 h): induced the activation of caspase-9 and -3; proapoptosis-related proteins (Bax, cytochrome c, apaf-1) (U937 cells [9]; 10 µM, 6 h): increases in proapoptosis-related proteins, including Bax, cytochrome c and apaf-1; time course cell cycle analysis (U937 cells [10]): did not cause an obvious accumulation of cells in any phase but significantly increased apoptotic cells in the sub-G1 population; sub-G1 population (U937 cells [10]; 5 μM, 24 h): 6.33%; sub-G1 population (U937 cells [10]; 10 μM, 24 h): 53.86%; effect of NAC pretreatment on compound-induced cell cycle change (sub-G1 accumulation or G2/M arrest) (U937 cells [10]): significantly suppressed; intracellular ROS levels compared to control (U937 cells [11]): significantly higher than those in control cells; intracellular ROS levels with NAC pretreatment (U937 cells [11]; 10 mM NAC 1 h, then 10 µM mesonol B 30 min): could be blocked by pretreatment with NAC; IC50 [7]: 1.97 to 19.9 µM"
"C=C1C2CC3C4(C)CCCC(C)(C)C4CCC3(C1O)C(O)C2O (stereo not drawn) [Compound 10, 13α,14β,15β-trihydroxyl-ent-atis-16-ene]",> 20 µM,> 50 µM,> 20 µM,> 20 µM,> 20 µM,> 20 µM,
"CC1(C)CCCC2(C)C1CCC13CC(C(O)CC12)C(O)(CO)C3=O (stereo not drawn) [Compound 1, 12α,16β,17-trihydroxy-ent-kaur-15-one]",17.4 ± 0.28 µM,> 50 µM,12.1 ± 0.55 µM,9.1 ± 0.38 µM,2.66 ± 0.14 µM,12.5 ± 0.24 µM,"toxicity against normal mouse RAW 264.7 macrophages compared with cancer cells [2]: less toxic against normal mouse RAW 264.7 macrophages; G2/M progression proteins cdc25c, cyclin B1, CDK1 (U937 cells [9]; 5 µM, 12 h): decreases in the G2/M progression proteins cdc25c, cyclin B1, and CDK1; p21 protein level (U937 cells [9]; 5 µM, 12 h): significant increase in p21 protein; time course cell cycle analysis (U937 cells [10]): time-dependent accumulation of cells arrested in the G2/M phase; effect on cell population at G2/M phase (U937 cells [10]; 10 μM, 24 h): significant increase in the cell population at G2/M phase; effect of NAC pretreatment on compound-induced cell cycle change (sub-G1 accumulation or G2/M arrest) (U937 cells [10]): little to no effect; effect on percentage of sub-G1 population, dose response (U937 cells [10]; 0.625-10 μM, 24 h, plateau at 5 μM): dose-dependently increased the percentage of the sub-G1 population; intracellular ROS levels compared to control (U937 cells [11]): did not induce an increase in intracellular ROS levels; IC50 [7]: 1.97 to 19.9 µM"
"CC1(C)CCCC2(C)C1CCC13CC(C(O)CC21)C(O)(CO)C3O (stereo not drawn) [Compound 5, 12α,15β,16α,17-tetrahydroxy-ent-kaurane]",,,,,,,IC50 [1]: > 20 µM; IC50 [2]: > 50 µM; IC50 [3]: > 20 µM; IC50 [4]: > 20 µM; IC50 [5]: > 20 µM; IC50 [6]: > 20 µM
C=C1C(=O)[C@@]23[C@@H]4O[C@H]5O[C@@]2(O)[C@@H](O)[C@@H]2C(C)(C)CCC[C@]52[C@@H]3CC[C@@H]14 [xerophilusin B],,,,,,,apoptosis and cell cycle arrest (KYSE-450 cells): induce apoptosis and G2/M phase cell cycle arrest; apoptosis and cell cycle arrest (KYSE-150 cells): induce apoptosis and G2/M phase cell cycle arrest
"CC1(C)CCCC2(C)C1CCC13CC(C(=O)CC21)C(O)(CO)C3O (stereo not drawn) [Compound 7, 15β,16β,17-trihydroxy-ent-kaur-12-one]",> 20 µM,> 50 µM,> 20 µM,> 20 µM,> 20 µM,> 20 µM,
"4α-hydroxy-17,19-dinor-ent-kaurane-16-one",,,,,,,IC50 (hepatoma): > 100 µM
